Source: ChEMBL document CHEMBL1201862, “PubChem BioAssay data set” (2004)
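In this assay, cells in 96-well plates receive the compound at five concentrations for 48 hours. Endpoints are linearly interpolated between the surrounding concentrations. GI50: concentration for 50% inhibition of growth.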 Calls of active or inactive are those of the source. Cut-off read from the data, not from the text of the source: active = GI50 up to about 1.1 µM and inactive = higher.

How the values were obtained:
Experiment in all cases: growth of human tumour cells (NCI), 48 h
[1] = test system: MDA-MB-435
[2] = test system: OVCAR-3
[3] = test system: SN12C
[4] = test system: MOLT-4
[5] = test system: IGROV-1
[6] = test system: SK-MEL-28
[7] = test system: K562
[8] = test system: CCRF-CEM
[9] = test system: HCT-116
[10] = test system: OVCAR-4
[11] = test system: 786-0
[12] = test system: NCI-H226
[13] = test system: SK-MEL-2
[14] = test system: Hs-578T
[15] = test system: SW-620
[16] = test system: OVCAR-8
[17] = test system: SNB-19
[18] = test system: BT-549
[19] = test system: SF-539
[20] = test system: U-251
[21] = test system: RXF 393
[22] = test system: HCT-15
[23] = test system: TK-10
[24] = test system: CAKI-1
[25] = test system: SK-OV-3
[26] = test system: DU-145
[27] = test system: OVCAR-5
[28] = test system: KM12
[29] = test system: HOP-62
[30] = test system: A549
[31] = test system: SF-268
[32] = test system: T47D
[33] = test system: HCC 2998
[34] = test system: LOX IMVI
[35] = test system: RPMI-8226
[36] = test system: MCF7
[37] = test system: M14
[38] = test system: PC-3
[39] = test system: NCI-H23
[40] = test system: NCI-H522
[41] = test system: NCI/ADR-RES
[42] = test system: EKVX
[43] = test system: NCI-H460
[44] = test system: SF-295
[45] = test system: HT-29
[46] = test system: HL-60
[47] = test system: A498
[48] = test system: COLO 205
[49] = test system: SK-MEL-5
[50] = test system: ACHN
[51] = test system: SNB-75
[52] = test system: MDA-N
[53] = test system: UACC-62
[54] = test system: MDA-MB-231
[55] = test system: UACC-257
[56] = test system: Malme-3M
[57] = test system: UO-31
[58] = test system: HOP-92
[59] = test system: SR

Cc1cccc(-c2cc(O)c3c(C)ccnc3n2)c1
GI50 [1]: 0.0463 µM (active)
GI50 [2]: 0.256 µM (active)
GI50 [3]: 0.564 µM (active)
GI50 [4]: 0.71 µM (active)
GI50 [5]: 0.681 µM (active)
GI50 [6]: > 61.1 µM (inactive)
GI50 [7]: 0.139 µM (active)
GI50 [8]: 0.583 µM (active)
GI50 [9]: 0.355 µM (active)
GI50 [10]: 8.41 µM (inactive)
GI50 [11]: 0.564 µM (active)
GI50 [12]: 0.495 µM (active)
GI50 [13]: 0.321 µM (active)
GI50 [14]: 0.356 µM (active)
GI50 [15]: 0.169 µM (active)
GI50 [16]: 0.718 µM (active)
GI50 [17]: 0.447 µM (active)
GI50 [18]: > 100 µM (inactive)
GI50 [19]: 0.456 µM (active)
GI50 [20]: 0.407 µM (active)
GI50 [21]: 0.455 µM (active)
GI50 [22]: 0.261 µM
GI50 [23]: > 53.1 µM (inactive)
GI50 [24]: 0.39 µM (active)
GI50 [25]: 0.53 µM (active)
GI50 [26]: 1.05 µM (active)
GI50 [27]: 1.19 µM (inactive)
GI50 [28]: 0.209 µM (active)
GI50 [29]: 0.597 µM (active)
GI50 [30]: 0.71 µM (active)
GI50 [31]: 10 µM (inactive)
GI50 [32]: 0.826 µM (active)
GI50 [33]: 1.03 µM (active)
GI50 [34]: 0.667 µM (active)
GI50 [35]: 0.468 µM (active)
GI50 [36]: 0.319 µM (active)
GI50 [37]: 0.291 µM (active)
GI50 [38]: 0.371 µM (active)
GI50 [39]: 1.17 µM (inactive)
GI50 [40]: 0.247 µM (active)
GI50 [41]: 0.255 µM (active)
GI50 [42]: 0.935 µM (active)
GI50 [43]: 0.363 µM (active)
GI50 [44]: 0.346 µM (active)
GI50 [45]: 0.339 µM (active)
GI50 [46]: 0.166 µM (active)
GI50 [47]: 0.791 µM (active)
GI50 [48]: 0.208 µM (active)
GI50 [49]: 0.269 µM (active)
GI50 [50]: 0.601 µM (active)
GI50 [51]: 0.36 µM (active)
GI50 [52]: 0.0474 µM (active)
GI50 [53]: 0.461 µM (active)
GI50 [54]: 0.745 µM (active)

CC(C)(CC#N)c1cc(CC(C)(C)c2cc(CC(C)(C)c3cc(C(C)(C)C4(C)OCCO4)no3)no2)no1
GI50 [1]: > 100 µM (inactive)
GI50 [2]: 56 µM (inactive)
GI50 [3]: 25.8 µM (inactive)
GI50 [4]: > 100 µM (inactive)
GI50 [5]: 54.1 µM (inactive)
GI50 [6]: > 100 µM (inactive)
GI50 [7]: > 100 µM (inactive)
GI50 [8]: 45.8 µM (inactive)
GI50 [9]: 51.4 µM (inactive)
GI50 [10]: 23.5 µM (inactive)
GI50 [11]: 17 µM (inactive)
GI50 [12]: 36.4 µM (inactive)
GI50 [13]: 42.7 µM (inactive)
GI50 [14]: 22.8 µM (inactive)
GI50 [55]: 67.6 µM (inactive)
GI50 [15]: > 100 µM (inactive)
GI50 [16]: 51.9 µM (inactive)
GI50 [17]: 21.8 µM (inactive)
GI50 [18]: 52.5 µM (inactive)
GI50 [56]: 91 µM (inactive)
GI50 [20]: 39.8 µM (inactive)
GI50 [21]: 7.89 µM (inactive)
GI50 [22]: 94.2 µM
GI50 [23]: 51.5 µM (inactive)
GI50 [24]: 22.4 µM (inactive)
GI50 [25]: 27.1 µM (inactive)
GI50 [26]: 50.4 µM (inactive)
GI50 [27]: > 100 µM (inactive)
GI50 [28]: > 100 µM (inactive)
GI50 [29]: 27 µM (inactive)
GI50 [30]: > 100 µM (inactive)
GI50 [31]: 39.4 µM (inactive)
GI50 [32]: 9.08 µM (inactive)
GI50 [33]: > 100 µM (inactive)
GI50 [35]: > 100 µM (inactive)
GI50 [36]: 19.1 µM (inactive)
GI50 [37]: > 100 µM (inactive)
GI50 [38]: 39.7 µM (inactive)
GI50 [39]: > 100 µM (inactive)
GI50 [40]: 24.6 µM (inactive)
GI50 [57]: > 100 µM (inactive)
GI50 [41]: 47.2 µM (inactive)
GI50 [42]: 33 µM (inactive)
GI50 [44]: 31 µM (inactive)
GI50 [45]: > 100 µM (inactive)
GI50 [47]: 28.9 µM (inactive)
GI50 [48]: > 100 µM (inactive)
GI50 [49]: 75.7 µM (inactive)
GI50 [50]: 35.5 µM (inactive)
GI50 [51]: 14.7 µM (inactive)
GI50 [52]: 51.1 µM (inactive)
GI50 [53]: 41.9 µM (inactive)
GI50 [54]: 22.4 µM (inactive)

CC1(C)CC2(C)CC1CC2NC(=O)CCN1CCOCC1 (stereo unspecified)
GI50 [1]: > 100 µM (inactive)
GI50 [2]: > 100 µM (inactive)
GI50 [3]: > 100 µM (inactive)
GI50 [4]: > 100 µM (inactive)
GI50 [5]: > 100 µM (inactive)
GI50 [6]: > 100 µM (inactive)
GI50 [7]: > 100 µM (inactive)
GI50 [8]: > 100 µM (inactive)
GI50 [9]: > 100 µM (inactive)
GI50 [10]: > 100 µM (inactive)
GI50 [11]: > 100 µM (inactive)
GI50 [12]: > 100 µM (inactive)
GI50 [58]: > 100 µM (inactive)
GI50 [14]: > 100 µM (inactive)
GI50 [55]: > 100 µM (inactive)
GI50 [15]: > 100 µM (inactive)
GI50 [16]: > 100 µM (inactive)
GI50 [17]: > 100 µM (inactive)
GI50 [18]: > 100 µM (inactive)
GI50 [19]: > 100 µM (inactive)
GI50 [56]: > 100 µM (inactive)
GI50 [20]: > 100 µM (inactive)
GI50 [21]: > 100 µM (inactive)
GI50 [23]: > 100 µM (inactive)
GI50 [24]: > 100 µM (inactive)
GI50 [25]: > 100 µM (inactive)
GI50 [26]: > 100 µM (inactive)
GI50 [27]: > 100 µM (inactive)
GI50 [28]: > 100 µM (inactive)
GI50 [29]: > 100 µM (inactive)
GI50 [30]: > 100 µM (inactive)
GI50 [31]: > 100 µM (inactive)
GI50 [32]: > 100 µM (inactive)
GI50 [33]: > 100 µM (inactive)
GI50 [36]: > 100 µM (inactive)
GI50 [37]: > 100 µM (inactive)
GI50 [38]: > 100 µM (inactive)
GI50 [39]: > 100 µM (inactive)
GI50 [40]: > 100 µM (inactive)
GI50 [57]: > 100 µM (inactive)
GI50 [59]: > 100 µM (inactive)
GI50 [42]: > 100 µM (inactive)
GI50 [43]: > 100 µM (inactive)
GI50 [44]: > 100 µM (inactive)
GI50 [45]: > 100 µM (inactive)
GI50 [46]: > 100 µM (inactive)
GI50 [47]: > 100 µM (inactive)
GI50 [48]: > 100 µM (inactive)
GI50 [49]: > 100 µM (inactive)
GI50 [50]: > 100 µM (inactive)
GI50 [51]: > 100 µM (inactive)
GI50 [52]: > 100 µM (inactive)
GI50 [53]: > 100 µM (inactive)
GI50 [54]: > 100 µM (inactive)
